Columns and labels:
mouse Nurr1 full-length = molecular target: T1, mouse Nurr1 full-length (Mus musculus, UniProt Q06219); assay: Luciferase reporter gene assay for Nurr1 transcriptional activity in SK-N-BE2C cells; type: cell-based; details: relative activity over control (luminescence value; 1.0)
T1 construct: pcDNA3.1 Myc/His mouse Nurr1 full-length construct; expressed in transfected cells; host or cells: SK-N-BE2C
Protocol: To investigate whether the PG analogs of the present invention activate Nurr1 function, the inventors of the present invention employed an reporter gene assay and examined the transcriptional activation as described in Kim, C.-H. et al., Proceedings of the National Academy of Sciences 112, 8756-8761, doi:10.1073/pnas.1509742112 (2015).
The gene assay was performed by Luciferase assay as described below:
[Protocol for Luciferase Assay to Determine Nurr1 Transcriptional Activity] • 1. SK-N-BE2C cells were maintained in HyClone™ DMEM High Glucose (Cat. No.: SH30022.01) with 10% (v/v) fetal bovine serum (FBS), 100 units/ml penicillin and 100 μg/ml streptomycin. • 2. Seed 1.5×10^5 SK-N-BE2C cells/well into a 24-well plate and incubate at 37° C. with 5% CO2 for 24 hours. • 3. After 24 hours, transfect cells with pcDNA3.1 Myc/His mouse Nurr1 full-length construct, firefly luciferase reporter vector (pGL-3 basic from Promega, Cat. No.:E1751; with appropriate response element cloned in) and Renilla luciferase control vector (pRL-null from Promega, Cat. No.:E2271) in the ratio of 8:1:1 (Nurr1: firefly: renilla) or 400 ng, 50 ng and 50 ng respectively, amounting to a total of 500 ng in the 50 μl transfection mix for 1 well. • 4. To make the transfection mix, first prepare the DNA with P3000 reagent by adding the appropriate amount of DNA with 1 μl P3000 reagent and top up with Opti-MEM® I Reduced-Serum Media (from ThermoFisher Scientific [Cat. No.: 31985070]) to 25 μl. Incubate for 5 minutes at room temperature. • 5. Make another mix consisting of 1 μl Lipofectamine 3000 reagent with 24 μl Opti-MEM® I Reduced-Serum Media per well. Add this Lipofectamine mix to the previous DNA-P3000 mix (after the previous 5 minute incubation) and incubate them for 15 minutes at room temperature. [P3000:Lipofectamine=1:1]. • 6. In the meantime, change the media in the sample wells with fresh DMEM media without antibiotics. • 7. After 15 minutes incubation, add the 50 μl transfection mix into each well and incubate the plate for 24 hours at 37° C. with 5% CO2. • 8. After 24 hours, change the media to normal DMEM media with antibiotics and add various doses of compounds into designated wells and incubate the plate for another 24 hours at 37° C. with 5% CO2. • 9. Following the 24-hour incubation period, luciferase assay can be conducted using Dual-Glo Luciferase® kit from Promega (Cat. No.: E2920). • 10. Lyse each tested wells for 15 minutes with 75 μl of passive lysis buffer provided in the Dual-Luciferase® kit from Promega (Cat. No.: E1910). [Alternatively, add 75 μl of PBS and 75 μl of Dual-Glo® Luciferase Reagent and incubate for 10 minutes at room temperature (cover the plate with foil to protect from light). Transfer the entire sample in each well to a Greiner CELLSTAR® 96-well white polystyrene plate then proceed to step 13]. • 11. After 15 minutes, transfer each lysed sample to a Greiner CELLSTAR® 96-well white polystyrene plate (Cat. No.:655083). • 12. To each well of lysed cells, add 75 μl of Dual-Glo® Luciferase Reagent and incubate for 10 minutes at room temperature (cover the plate with foil to protect from light). • 13. Set the measurement with a 10-second integrated measurement period. • 14. Add 75 μl of Dual-Glo® Stop & Glo® reagent into each well and incubate for 10 minutes before commencing with the same parameters as before to determine the RLU for the Renilla luciferase. • 15. The averaged reading for wells corresponding to non-transfected cells can be subtracted from each RLU reading and duplicate/triplicate readings can then be averaged. Normalization of the luminescence reading for each well can be carried out by dividing the firefly luciferase RLU with the corresponding Renilla luciferase RLU. Each drug-treated well can then be normalized against the averaged DMSO-treated well reading.

Nurr1 = Nurr1 (Homo sapiens, UniProt P43354); assay: Activation of Nurr1 / Nurr1's transcription function by prostaglandins (stated without method); type: cell-based
Chain of Nurr1 (P43354 whole entry, species assumed): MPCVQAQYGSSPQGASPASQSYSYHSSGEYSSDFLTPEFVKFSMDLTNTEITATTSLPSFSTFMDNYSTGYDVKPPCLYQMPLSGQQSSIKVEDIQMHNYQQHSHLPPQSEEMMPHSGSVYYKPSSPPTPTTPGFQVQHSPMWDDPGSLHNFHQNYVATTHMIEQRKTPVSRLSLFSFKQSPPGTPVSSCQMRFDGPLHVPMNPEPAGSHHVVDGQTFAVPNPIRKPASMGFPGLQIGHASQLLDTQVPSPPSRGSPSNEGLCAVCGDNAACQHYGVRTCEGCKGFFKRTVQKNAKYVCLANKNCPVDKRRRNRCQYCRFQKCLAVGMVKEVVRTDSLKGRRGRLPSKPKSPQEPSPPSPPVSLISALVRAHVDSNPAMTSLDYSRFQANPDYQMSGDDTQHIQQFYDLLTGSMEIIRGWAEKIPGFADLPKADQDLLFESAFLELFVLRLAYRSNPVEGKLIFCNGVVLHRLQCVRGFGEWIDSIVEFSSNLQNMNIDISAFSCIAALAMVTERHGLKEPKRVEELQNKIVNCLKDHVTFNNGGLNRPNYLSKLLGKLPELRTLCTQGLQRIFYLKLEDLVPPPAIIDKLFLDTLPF

T1 sequence (Q06219 whole entry): as the sequence (P43354 whole entry, species assumed) above, with T131S, G134S, E354D counted along it

Row | Compound | Fold activity (1 uM) (mouse Nurr1 full-length) | Nurr1's transcription function (Nurr1)
1 | CCCCCC(O)/C=C/[C@H]1[C@H](O)CC(=O)[C@@H]1CCCCCCC(=O)Oc1ccc(NC(=O)c2ccc(F)cc2)cc1 (stereo partly drawn) [Compound 11, 4-(4-fluorobenzamido)phenyl 7-((1R,2R,3R)-3-hydroxy-2-((E)-3-hydroxyoct-1-enyl)-5-oxocyclopentyl)heptanoate] | A (above 2.0 (high activity)) | –
2 | C=C1C[C@H](O)[C@H](C/C=C\CCCC(=O)O)[C@H]1/C=C/[C@@H](O)CCCCC [Compound 25, 11-deoxy-11-methylene Prostaglandin D2] | B (1.1~2.0 (moderate)) | –
3 | CCCCC(C)(O)C/C=C/[C@H]1[C@H](O)CC(=O)[C@@H]1CCCCCCC(=O)OC (some centres unmarked) [misoprostol, Misoprostol] | – | enhanced
4 | CCCCC[C@H](O)/C=C/[C@@H]1[C@@H](C/C=C\CCCC(=O)O)[C@@H](O)C[C@H]1O.NC(CO)(CO)CO [Compound 92, DinoprostTromethanol] | B (1.1~2.0 (moderate)) | –
5 | CCCCC[C@H](O)/C=C/[C@H]1C(=O)C[C@H](O)[C@@H]1CCCCCCC(=O)O [Compound 48, Prostaglandin D1] | C (below 1.0 (low activity)) | –
6 | CCCCC[C@H](O)/C=C/[C@H]1C(=O)C[C@H](O)[C@@H]1C/C=C\CCCC(=O)NC(CO)CO [Compound 32, Prostaglandin D2 serinol amide] | C (below 1.0 (low activity)) | –
7 | CCCCC[C@H](O)/C=C/[C@H]1[C@H](O)CC(=O)[C@@H]1CCCCCCC(=O)NOc1ccccc1 [Compound 9, 7-((1R,2R,3R)-3-hydroxy-2-((S,E)-3-hydroxyoct-1-enyl)-5-oxocyclopentyl)-N-phenoxyheptanamide] | A (above 2.0 (high activity)) | –
8 | CCCCC(C)(C)[C@@H](O)/C=C/[C@H]1[C@H](O)CC(=O)[C@@H]1CCCCCCC(=O)O [Compound 51, 16,16-dimethyl Prostaglandin E1] | A (above 2.0 (high activity)) | –
9 | O=C(O)CCC/C=C\C[C@H]1C(=O)C[C@@H](O)[C@@H]1/C=C/[C@@H](O)Cc1ccccc1 [Compound 30, 16-phenyl tetranor Prostaglandin E2] | A (above 2.0 (high activity)) | –
10 | CCCCCC(=O)CCC1C(=O)CC(O)C1CCCCCCC(=O)O (centres unmarked) [Compound 79, 13,14-dihydro-15-keto Prostaglandin D1] | C (below 1.0 (low activity)) | –
11 | CCCCC[C@H](O)C/C=C1/C(=O)C[C@H](O)[C@@H]1C/C=C\CCCC(=O)O [Compound 41, D12-Prostaglandin D2] | C (below 1.0 (low activity)) | –
12 | CS(=O)(=O)NC(=O)CCC/C=C\C[C@H]1C(=O)C[C@@H](O)[C@@H]1/C=C/[C@@H](O)COc1ccccc1 [Compound 22, Sulprostone] | B (1.1~2.0 (moderate)) | –
13 | CNC(=O)CCC/C=C\C[C@@H]1[C@@H](/C=C/[C@@H](O)CCc2ccccc2)[C@H](O)C[C@@H]1O [Compound 80, 17-phenyl trinor PGF2a methyl amide] | C (below 1.0 (low activity)) | –
14 | CCCCC[C@H](O)/C=C/[C@H]1[C@H](O)CC(=O)[C@@H]1CCCCCCC(=O)Oc1ccc(NC(=O)c2ccc(F)c(F)c2)cc1 [Compound 12, 4-(3,4-difluorobenzamido)phenyl 7-((1R,2R,3R)-3-hydroxy-2-((S,E)-3-hydroxyoct-1-enyl)-5-oxocyclopentyl)heptanoate] | A (above 2.0 (high activity)) | –
15 | O=C(O)CCC/C=C\CC1C(=O)CC(O)C1/C=C/C(O)CC1CCCCC1 (centres unmarked) [Compound 71, 8-iso-16-cyclohexyl-tetranor Prostaglandin E2] | B (1.1~2.0 (moderate)) | –
16 | CCCCC[C@@H](O)/C=C/[C@H]1C(=O)C[C@H](O)[C@@H]1CCCCCCCO [Compound 56, Prostaglandin D1 Alcohol] | C (below 1.0 (low activity)) | –
17 | O=C(O)CCCCCC[C@H]1C(=O)C[C@@H](O)[C@@H]1/C=C/[C@@H](O)Cc1ccccc1 [Compound 59, 16-phenyl tetranor Prostaglandin E1] | B (1.1~2.0 (moderate)) | –

The remaining lines, values ahead:

Row | Fold activity (1 uM) (mouse Nurr1 full-length) | Nurr1's transcription function (Nurr1) | Compound
18 | C (below 1.0 (low activity)) | – | CCCCC[C@H](O)/C=C/[C@H]1[C@H](O)CC(=O)[C@@H]1C/C=C\CCCC(=O)NC(CO)CO [Compound 40, Prostaglandin E2 serinol amide]
19 | C (below 1.0 (low activity)) | – | CCCCC[C@H](O)/C=C/[C@H]1[C@H](O)CC(=O)[C@@H]1CCCCC(=O)O [Compound 93, 2,3-DINOR PGE1]
20 | B (1.1~2.0 (moderate)) | – | CCCCCC(=O)CC[C@H]1[C@H](O)CC(=O)[C@@H]1C/C=C\CCCC(=O)O [Compound 29, 13,14-dihydro-15-keto Prostaglandin E2]
21 | A (above 2.0 (high activity)) | – | CCCCC[C@](C)(O)/C=C/[C@H]1[C@H](O)CC(=O)[C@@H]1C/C=C\CCCC(=O)O [Compound 61, 15(S)-15-methyl Prostaglandin E2]
22 | A (above 2.0 (high activity)) | – | CCCCC[C@H](O)/C=C/[C@H]1[C@H](O)CC(=O)[C@@H]1C/C=C\CCCC(=O)OC [Compound 28, Prostaglandin E2 methyl ester]
23 | A (above 2.0 (high activity)) | – | C[C@@H](O)CCC[C@H](O)/C=C/[C@H]1[C@H](O)CC(=O)[C@@H]1C/C=C\CCCC(=O)O [Compound 54, 19(R)-hydroxy Prostaglandin E2]
24 | A (above 2.0 (high activity)) | – | CCCCC[C@](C)(O)/C=C/[C@H]1[C@H](O)CC(=O)[C@@H]1CCCCCCC(=O)O [Compound 27, 15(S)-15-methyl Prostaglandin E1]
25 | A (above 2.0 (high activity)) | – | CC/C=C/C[C@H](O)/C=C/[C@H]1[C@H](O)CC(=O)[C@@H]1C/C=C\CCCC(=O)O (relative stereo) [Compound 78, 17-trans Prostaglandin E3]
26 | A (above 2.0 (high activity)) | – | CCCCC[C@H](O)/C=C/[C@H]1[C@H](O)CC(=O)[C@H]1C/C=C\CCCC(=O)O [Compound 68, 8-iso Prostaglandin E2]
27 | B (1.1~2.0 (moderate)) | – | CCCCCC(=O)CC[C@H]1C(=O)C[C@H](O)[C@@H]1C/C=C\CCCC(=O)O [Compound 33, 13,14-dihydro-15-keto Prostaglandin D2]
28 | B (1.1~2.0 (moderate)) | – | CCCC1([C@H](O)C/C=C/[C@H]2[C@H](O)CC(=O)[C@@H]2C/C=C\CCCC(=O)O)CCC1 [Compound 43, CAY10408]
29 | B (1.1~2.0 (moderate)) | – | CCCCC[C@H](O)/C=C/[C@H]1[C@H](O)CC(=O)[C@@H]1C/C=C\CCCC(=O)NCCO [Compound 36, Prostaglandin E2 Ethanolamide]
30 | C (below 1.0 (low activity)) | – | CCCCC[C@](C)(O)/C=C/[C@@H]1[C@@H](C/C=C\CCCC(=O)O)[C@@H](O)C[C@H]1O [Compound 86, Carboprost]
31 | B (1.1~2.0 (moderate)) | – | CCCCC(C)(O)C/C=C/[C@H]1[C@H](O)CC(=O)[C@@H]1CCCCCCC(=O)O (mixture of isomers) [Compound 94, Misoprostol acid]
32 | B (1.1~2.0 (moderate)) | – | CCCCC[C@@H](O)/C=C/[C@H]1[C@H](C/C=C\CCCC(=O)O)C(=O)C[C@@H]1O [Compound 47, ent-Prostaglandin E2]

Reference: patent US20210139435A1, “PROSTAGLANDIN ANALOGS AND USES THEREOF” (Lifex Biolabs, Inc., priority 2019, published 2021)
